Test results taken from publication PMC9763021, “Comprehensive Assessment of Biomolecular Interactions of Morpholine-Based Mixed Ligand Cu(II) and Zn(II) Complexes of 2,2′-Bipyridine as Potential Anticancer and SARS-CoV-2 Agents: A Synergistic Experimental and Structure-Based Virtual Screening” (Bioinorganic Chemistry and Applications, 2022).

Tests used:
[1] = system: CT-DNA; experiment: DNA cleavage by gel electrophoresis in H2O2 environment; type: biochemical, calf thymus; settings: DNA + H2O2, Tris-HCl pH 7.4, agarose gel
Procedure: The characteristics were examined of all substances along with DNA containing H2O2 and Tris-HCl buffer solution (pH: 7.4). The tank solution's gel layer was lifted out after the experiment was finished and put in front of a UV transilluminator. Additionally, each band lane was scrutinized with control (DNA + H2O2).
Using the gel electrophoresis method, the DNA nuclease properties for all samples were assessed under the H2O2 environment. The examined DNA nuclease efficacy for all complexes (1a-2a) was contrasted with free ligand (HL) and CT-DNA alone. The raw data for electrophoretic gels and blots were also enclosed in the electronic supplementary file (Figure S15). In Figure 1, no substantial nuclease activity can be seen in the control (lane 1; DNA + H2O2) even after a lot of time has passed and the free ligand (HL) (lane: 2) was monitored as immobile in an H2O2 environment. […] Furthermore, ROS include O2^•−, H2O2, OH^•, ROOH, ROO^•, HOCl, and ^1O2 (singlet oxygen) and ozone (O3), which play essential roles in living systems. Consequently, it has commonly been acknowledged that ROS plays a dual physiological role in controlling a variety of illnesses as well as cellular homeostasis (self-regulating processes such as thermoregulation, blood glucose regulation, calcium/potassium homeostasis, and osmoregulation). […] Additionally, it is widely known that NADPH oxidase generates reactive oxygen species as a portion of its antibacterial effect on phagocytic cells. Nevertheless, these types of enzymes seem to be present in a variety of other cells as well and may have significant signalling pathway functions. When noncarcinogenic toxicity events occur, ROS has the ability to alter cell function as well as affect the genes of cancer at several levels. OH^• can attack DNA, proteins, and lipids due to its high reactivity among ROS. The hydroxyl radical is a key participant in free radical-mediated hazardous reactions because of its great reactivity. The free radicals are also essential for the redox regulation of many cellular signalling pathways and proper cellular functions. […]

[2] = target: bovine serum albumin (Bos taurus, UniProt P02769); experiment: BSA binding by UV-visible absorption titration; settings: for Chromism (% H), hyperchromism: BSA 278 nm; for Δλ (nm), blue shift of BSA band: Tris-HCl, 25 μM BSA; for ∆Gb°: –RT lnKapp, 298 K
bovine serum albumin, sequence (P02769 25-607): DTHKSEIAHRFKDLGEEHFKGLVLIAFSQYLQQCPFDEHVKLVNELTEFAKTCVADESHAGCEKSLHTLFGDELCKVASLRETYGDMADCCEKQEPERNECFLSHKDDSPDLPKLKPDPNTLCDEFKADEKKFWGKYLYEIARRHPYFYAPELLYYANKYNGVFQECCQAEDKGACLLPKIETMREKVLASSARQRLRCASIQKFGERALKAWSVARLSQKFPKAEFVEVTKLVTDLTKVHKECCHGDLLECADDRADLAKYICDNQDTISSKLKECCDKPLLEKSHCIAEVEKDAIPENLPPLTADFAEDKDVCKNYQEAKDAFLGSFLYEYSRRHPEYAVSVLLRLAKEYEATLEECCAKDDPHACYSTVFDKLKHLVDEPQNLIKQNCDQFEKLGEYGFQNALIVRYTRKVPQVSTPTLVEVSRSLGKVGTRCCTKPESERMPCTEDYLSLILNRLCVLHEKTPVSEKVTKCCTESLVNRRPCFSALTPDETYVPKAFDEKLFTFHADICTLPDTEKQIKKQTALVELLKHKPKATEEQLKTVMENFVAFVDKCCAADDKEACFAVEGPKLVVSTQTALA
Procedure: In the presence of Tris-HCl buffer solution, the UV-vis absorption titrations were done with a 25 μM concentration of BSA at room temperature. While the sample concentrations (0–25 μM) increased in the same BSA concentration solution, the change in the absorption band at 278 nm was continuously noted.
The UV-visible spectral titration properties are imperatively supported to scrutinize the structural changes and the nature of quenched biomolecules by the chemical substance. The titration was executed for BSA in the presence and absence of substances in Tris-HCl solution (Figure 7 and Table 7). Two distinctive adsorption peaks can be noticed in the UV-visible spectra of free BSA: one at 210 nm, which is connected to the polypeptide backbone, and the other at 280 nm, which is responsible for Trp, Tyr, and Phe aromatic amino acid residues. BSA's interaction with the test substances is designated by alterations in the electronic absorption spectra. Quenching typically occurs in either a static or dynamic phase. The static quenching mechanism only involves the synthesis of a bovine serum albumin-compound in the ground state, when a dynamic quenching mechanism involves the temporary presence of the excited state due to diffusion, which brings the BSA and the compound into close proximity. In addition, the dynamic quenching mechanism has no outcome on the electronic absorption spectrum; it only affects the excited state. Furthermore, both types have different temperature dependences; for example, in dynamic quenching, the quenching constants are meant to rise with temperature. Conversely, raised temperatures in static quenching favour decreased stability and lower quenching constants. […] It also recommended that bovine serum albumin and the test compounds in the ground state interact statically. In this case, the evaluated hyperchromism was found in the range of 47.79 to 65.62%. […] The Benesi–Hildebrand (37) is supported to evaluate the Kb values (Table 7). The Kapp findings for all substances were estimated from the finding of the intercept divided slope in the linear regression plot of [(A∞ − A0)/(Ax − A0)] vs. {1/[compound]} M^−1(Figure S34). The evaluated Kb findings for all test substances were in the subsequent order: (1a) > (2a) > (HL) with ∆Gb° values from –22.1246 to –28.0038 kJ·mol^−1. Complex (1a) is also clearly shown to have the greatest spontaneous binding efficacy with BSA among others.
Hyperchromism%=(A∞ − A0)/A∞ × 100; A0 is denoted as absorbance of BSA alone at 278 nm, A∞ is represented as absorbance of the fully bound form of BSA with complex or ligand, and Ax is absorbance of BSA in the addition of different concentration of complex or ligand, Gibb's free energy change ΔGb°=–RT lnKapp (where R = […] and T = 298 K); Kapp is denoted as apparent binding constant evaluated from the UV-vis absorption spectral titration.(37) A∞−A0/AX−A0=1/KbCompound+1, where ∆Amax = (A∞ − A0), ∆A = (Ax − A0), A0, Ax, and A∞ are denoted as the absorbance of free BSA, the absorbance of BSA in the increment concentrations of the compound, and the absorbance value of the fully bound form of bovine serum albumin with substance, respectively. Error limit ±2.5%.

SMILES	DNA cleavage (nuclease activity) [1]	Binding constant Kapp by BH method [2] [M⁻¹]	Chromism (% H), hyperchromism [2] [%]	Δλ (nm), blue shift of BSA band [2] [nm]	∆Gb° [2] [kJ/mol]	Kd [2] [µM]
[O-]c1ccccc1N=Cc1ccc(N2CCOCC2)cc1.[O-]c1ccccc1N=Cc1ccc(N2CCOCC2)cc1.[Zn+2].c1ccc(-c2ccccn2)nc1 [(2a), [Zn(L)2(bpy)]]	partially cleaves DNA	44355	55.04	04	-26.5010	–
Oc1ccccc1N=Cc1ccc(N2CCOCC2)cc1 [(HL), 2-(4-morpholinobenzylideneamino)phenol]	immobile	–	47.79	02	-22.1246	132
[Cu+2].[O-]c1ccccc1N=Cc1ccc(N2CCOCC2)cc1.[O-]c1ccccc1N=Cc1ccc(N2CCOCC2)cc1.c1ccc(-c2ccccn2)nc1 [(1a), [Cu(L)2(bpy)]]	complete DNA cleavage	81059	65.62	05	-28.0038	–
